Assay results as given in paper PMC4453511 (mBio, 2015).

Each compound was assayed against Rv1026/PPX2 (6×His-Rv1026) (Mycobacterium tuberculosis, UniProt P96374).
Chain of Rv1026/PPX2 (6×His-Rv1026) (P96374 whole entry): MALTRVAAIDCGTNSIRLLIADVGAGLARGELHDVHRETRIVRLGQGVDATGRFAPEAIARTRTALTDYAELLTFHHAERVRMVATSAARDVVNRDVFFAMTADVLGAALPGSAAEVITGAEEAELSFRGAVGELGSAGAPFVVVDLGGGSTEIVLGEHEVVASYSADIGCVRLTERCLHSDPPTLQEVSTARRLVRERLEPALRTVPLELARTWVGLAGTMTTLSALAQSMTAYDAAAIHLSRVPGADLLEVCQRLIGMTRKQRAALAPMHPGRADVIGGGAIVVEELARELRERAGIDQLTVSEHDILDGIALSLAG

| SMILES | DAPI-based poly(P) hydrolysis assay |
| --- | --- |
| Nc1ncnc2c1ncn2[C@@H]1O[C@H](COP(=O)(O)OP(=O)(O)O)[C@@H](O)[C@H]1O [ADP] | accelerated when recombinant protein was incubated with AMP/ADP and GMP/GDP |
| Nc1ncnc2c1ncn2[C@@H]1O[C@H](COP(=O)(O)O)[C@@H](O)[C@H]1O [AMP] | accelerated when recombinant protein was incubated with AMP/ADP and GMP/GDP |
| Nc1nc2c(ncn2[C@@H]2O[C@H](COP(=O)(O)OP(=O)(O)O)[C@@H](O)[C@H]2O)c(=O)[nH]1 [GDP] | accelerated when recombinant protein was incubated with AMP/ADP and GMP/GDP |
| Nc1nc2c(ncn2[C@@H]2O[C@H](COP(=O)(O)O)[C@@H](O)[C@H]2O)c(=O)[nH]1 [GMP] | accelerated when recombinant protein was incubated with AMP/ADP and GMP/GDP |
